From US4968672A, “Adenosine receptor prodrugs” (priority 1987, dated 1990)
Converted amounts (≈) assume the structure as drawn. Counter-ions that a name gives are not always drawn. Like-named read-outs stand apart in the source and are kept apart here. Blank lines part the entries; values can stand above or below the compound they belong to.

How the values were obtained:
[1] = molecular target: T1, A1 receptor (Rattus norvegicus, UniProt P25099); assay: inhibition of [3H]PIA binding to rat cerebral cortex membranes
T1 construct: rat cerebral cortex membranes; from tissue; host or cells: rat cerebral cortex membranes
T1 sequence (P25099 1-326): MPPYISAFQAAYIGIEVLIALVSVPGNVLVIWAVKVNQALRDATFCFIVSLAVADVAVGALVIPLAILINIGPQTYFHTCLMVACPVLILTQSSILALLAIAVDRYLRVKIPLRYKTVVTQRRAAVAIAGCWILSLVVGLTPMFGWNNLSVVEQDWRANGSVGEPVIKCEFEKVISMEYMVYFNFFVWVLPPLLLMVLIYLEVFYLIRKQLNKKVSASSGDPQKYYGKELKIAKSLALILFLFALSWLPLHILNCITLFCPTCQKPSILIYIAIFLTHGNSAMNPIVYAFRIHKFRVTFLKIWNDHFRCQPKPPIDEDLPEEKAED
Experimental: (§1) Measurements of the potencies of the xanthines as antagonists of NECA-induced stimulation of adenylate cyclase activity in human platetlet membranes and as inhibitors of [^3 H]PIA binding to rat cerebral cortex membranes were carried out as reported previously.

[2] = molecular target: T2, A2 receptor (Homo sapiens, UniProt P29274); assay: antagonism of NECA-induced stimulation of adenylate cyclase activity in human platelet membranes; format: biochemical; details: for A2 potency / affinity: human platelets
T2 construct: human platetlet membranes; from tissue; host or cells: human platelet membranes
T2 sequence (P29274 whole entry): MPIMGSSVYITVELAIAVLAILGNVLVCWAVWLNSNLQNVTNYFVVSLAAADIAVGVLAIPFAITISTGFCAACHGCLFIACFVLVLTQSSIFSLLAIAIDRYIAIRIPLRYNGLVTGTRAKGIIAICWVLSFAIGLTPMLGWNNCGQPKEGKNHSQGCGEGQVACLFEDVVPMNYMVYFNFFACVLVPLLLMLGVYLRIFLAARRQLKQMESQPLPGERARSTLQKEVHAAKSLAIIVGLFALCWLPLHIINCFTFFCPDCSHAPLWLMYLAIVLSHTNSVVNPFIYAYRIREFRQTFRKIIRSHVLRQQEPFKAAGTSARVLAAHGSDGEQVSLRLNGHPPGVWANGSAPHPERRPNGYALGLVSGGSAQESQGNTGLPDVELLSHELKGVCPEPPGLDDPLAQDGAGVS
Experimental: as §1

[3] = system: acute renal failure; details: renal artery occlusion or glycerol injection; cited from earlier work
[4] = molecular target: T3, CHA-induced renal vasoconstriction (A1 subclass of receptors) (Rattus norvegicus, UniProt P25099); assay: CHA-induced renal vasoconstriction in isolated perfused rat kidneys
T3 construct: isolated rat kidneys; from tissue; host or cells: isolated perfused rat kidney
T3 sequence (P25099 1-326): T1 sequence (P25099 1-326)

[5] = system: adenosine receptors (glomerular filtration rate); assay: glomerular filtration rate after N6-cyclohexyladenosine in rats; format: in vivo, rat; details: CHA administered to rats
[6] = system: adenosine receptors (kidney and non-renal vasculature); assay: blood pressure and sodium excretion in CHA-treated rats (Table 4); format: in vivo, rat; details: CHA infusion 10 nmol/min/kg; antagonists 0.2 umoles/kg bolus then 2 nmol/kg/min
Experimental: ^1 CHA = N^6 -cyclohexyladenosine administered as a constant
infusion of 10 nanmoles/min./kg. Total dose administered over 45 min. was
approximately […] (= relatively high dose).
^2 Xanthine antagonists were administered in a bolus injection of 0.2
umoles/kg followed by an infusion of 2 nanamoles per kg/min.

[7] = molecular target: T4, A1 adenosine receptors (Rattus norvegicus, UniProt P25099); assay: membrane binding assay at A1 adenosine receptors (Tables 1 and 2)
T4 construct: rat cerebral cortex membranes; from tissue; host or cells: rat cerebral cortex membranes
T4 sequence (P25099 1-326): T1 sequence (P25099 1-326)
Excerpt: Table 2 lists prodrugs (including Routes A and B of FIG. 2) and chemical intermediates, based on xanthine and adenosine functionalized congener and the method of synthesis. The potency of each compound at A1 adenosine receptors is indicated by the Ki (inverse relationship to potency) in a membrane binding assay.

[8] = solubility; format: physicochemical
[9] = oral absorption and cleavage of prodrug
[10] = molecular target: A2 adenosine receptors; assay: reversal of 2-chloroadenosine-stimulated cyclic AMP production in guinea pig brain slices; format: cell-based; details: read-out: Ki for reversal of 2-chloroadenosine-stimulated cyclic AMP production; guinea pig brain slices
Excerpt: […]. As modifications of these xanthines designed to increases A2 -potency we have explored changing the size of the 1,3-dialkyl groups and incorporating distal amino groups in the functionalized 8-phenyl moiety.

[11] = brain and plasma level after I.V. dosing in rats; format: in vivo, rat; details: 1 mg/kg I.V.
Excerpt: […]. […] The above lipid derivatives will enter the brain and should be able to act as central stimulants. When given orally, the lipid derivatives enter the lymphatic system and may be directed to the brain. Compound 43 (as its reduced dihydropyridine form) is designed to enter the brain by another mechanism.

[12] = system: blood brain barrier / central nervous system; assay: brain entry / central side effects
[13] = octanol/water partition coefficient; format: physicochemical; details: for logD: n-octanol / sodium phosphate pH 7.2, 0.1 M, read-out: octanol/water partition coefficient (log p)
Experimental: Partition coefficients were determined by addition of a dimethylsulfoxide solution (5 uL) of the xanthine to an equivolume mixture (2 mL) of n-octanol and aqueous sodium phosphate, pH 7.2, 0.1 M. After thorough mixing of phases and separation, the ratio of concentrations was determined by comparing absorption at 310 nm of aliquots diluted in methanol (the aqueous phase was filtered). The ±s.e.m. for six determinations corresponded to 0.01 log p units.

[14] = system: blood brain barrier / central nervous system; details: background; cited from earlier work
[15] = [3H]PIA, rat cerebral cortex membranes, means from two experiments, read-out: A1 receptor Ki
[16] = antagonism of NECA-stimulated adenylate cyclase, human platelet membranes, means with 95% confidence limits from 3 experiments, read-out: A2 receptor KB

Compound: CCCn1c(=O)c2nc(-c3ccc(OCC(=O)NCCN)cc3O)[nH]c2n(CCC)c1=O [2-hydroxyl analog of XAC]
Ki ([1]; read-out: Ki at central A1-receptors): 2.3 nM
Kb ([2]; read-out: Kb for the reversal of NECA-stimulated adenylate cyclase activity in human platelets): 140 nM

Compound: Cn1c(=O)c2[nH]c(-c3ccccc3)nc2n(C)c1=O [8-phenyltheophylline]
effect on kidney failure [3]: beneficial effects in preventing or lessening the severity of resultant kidney failure, and in increasing survival

Compound: OC[C@H]1O[C@@H](n2cnc3c(NC4CCCCC4)ncnc32)[C@H](O)[C@@H]1O [CHA, N^6 -cyclohexyladenosine, reference compound]
pressure change in response to CHA ([4]; 3×10^-8 M CHA): 21±5 mm Hg
pressure change in response to CHA ([4]; 10^-8 M CHA): 5±2 mm Hg
glomerular filtration rate lowered to % of normal [5]: 30-40%
Sodium excretion [6]: 0.86 ± 0.04 uEq/min/kg
b.p. [6]: 113 + 2 mmHg

Compound: CCCn1c(=O)c2[nH]c(-c3ccc(OCC(=O)NCCNC(=O)CC[C@H](NC(C)=O)C(=O)OCc4ccccc4)cc3)nc2n(CCC)c1=O [Compound 16, N-Acetyl-glutamic acid (gamma-XAC) alpha benzyl ester]
Ki ([7]; Table 2, read-out: Ki (A1(nM))): 9.8 nM
solubility in ethanol ([8]; with warming): readily dissolved in ethanol, with warming
cleavage to the active drug [9]: benzyl ester is readily cleaved by estereases to liberate compound 17
absorption by the gut ([9]; oral): sufficiently non-polar to be absorbed effectively by the gut

Compound: CCCn1c(=O)c2[nH]c(-c3ccc(OCC(=O)O)cc3)nc2n(CCC)c1=O [Compound 30]
Ki [1, 15]: 50 nM
Ki [10]: 34 nM
level in the brain [11]: undetectable in the brain
concentration at 10 min ([11]; rat, plasma, iv, read-out: plasma conc. after 10 min): 2650 ± 450 ng/mL

Compound: CCCCCCCCCCCCCC(=O)NCCNC(=O)COc1ccc(-c2nc3c([nH]2)c(=O)n(CCC)c(=O)n3CCC)cc1 [Compound 33, Myristoyl-XAC]
Ki ([7]; Table 2, read-out: Ki (A1(nM))): 98 ± 16 nM
cleavage to the active drug [9]: readily cleaved at the site of action to generate XAC

Compound: CC(=O)N[C@@H](CCC(=O)NCCNC(=O)Cc1ccc(NC(=O)Cc2ccc(Nc3ncnc4c3ncn4[C@@H]3O[C@H](CO)[C@@H](O)[C@H]3O)cc2)cc1)C(=O)O [Compound 35]
Ki ([7]; Table 2, read-out: Ki (A1(nM))): > 10 nM
central side effects [12]: absent
entry into the brain / passage across the blood brain barrier [12]: excluded from passage across the blood brain barrier

Compound: Cn1c(=O)c2[nH]c(-c3ccccc3)nc2n(C)c1=O [Compound 51a]
Kb [2, 16]: 1900 nM

Compound: CCn1c(=O)c2[nH]c(-c3ccccc3)nc2n(CC)c1=O [Compound 51b]
Kb [2, 16]: 210 nM

Compound: CCCn1c(=O)c2[nH]c(-c3ccccc3)nc2n(CCC)c1=O [Compound 51c, 1,3-dipropyl-8-phenylxanthine]
Ki [1, 15]: 13 nM

Compound: CCOC(=O)COc1ccc(-c2nc3c([nH]2)c(=O)n(CC)c(=O)n3CC)cc1 [Compound 53b]
Ki [1, 15]: 140 nM
Kb [2, 16]: 170 nM

Compound: CCCn1c(=O)c2[nH]c(-c3ccc(OCC(=O)OCC)cc3)nc2n(CCC)c1=O [Compound 53c, 8-[4-[(carboxymethyl)oxy]phenyl]-1,3-dipropylxanthine ethyl ester]
Ki [1, 15]: 13 nM
Kb [2, 16]: 135 nM
A2 potency / affinity [2]: increased potency markedly at A2 receptors
Ki [10]: 30 nM

Compound: CCn1c(=O)c2[nH]c(-c3ccc(OCC(=O)OC(C)C)cc3)nc2n(CC)c1=O [Compound 54b, 8-[4-[(Carboxymethyl)oxy]phenyl]-1,3-diethylxanthine 2-Propyl Ester]
Ki [1, 15]: 90 nM
Kb [2, 16]: 73 nM

Compound: CCCn1c(=O)c2[nH]c(-c3ccc(OCC(=O)NCCNC(=O)[C@H](N)Cc4ccc(N)cc4)cc3)nc2n(CCC)c1=O [TFA.HD(p-NH2)PheXAC]
Ki ([7]; Table 2, read-out: Ki (A1(nM))): 2.3 nM

Compound: CCCn1c(=O)c2[nH]c(-c3ccc(OCC(=O)NCCNC(=O)[C@H](N)Cc4ccc([N+](=O)[O-])cc4)cc3)nc2n(CCC)c1=O [TFA.HD(p-NO2)PheXAC]
Ki ([7]; Table 2, read-out: Ki (A1(nM))): 4.3 nM

Compound: CCCn1c(=O)c2[nH]c(-c3ccc(OCC(=O)NCCNC(=O)CC[C@H](N)C(=O)OCc4ccccc4)cc3)nc2n(CCC)c1=O [TFA.HGlu(XAC)OBzl, Glutamic acid (gamma-XAC) alpha benzyl ester trifluoroacetate]
Ki [7]: 1.8 nM

Compound: Cn1c(=O)c2c(ncn2C)n(C)c1=O [caffeine]
passage through the blood-brain barrier [14]: freely pass through the blood-brain barrier
side effects with use [14]: insomnia, palpitations, tremor, and headache

Compound: CCCCCCCCCCCCCC(=O)NCCNC(=O)COc1ccc(-c2nc3c([nH]2)c(=O)n(CCC)c(=O)n3CCC)cc1 [drawing 10]
Ki ([7]; Table 1, prodrug before cleavage, read-out: Ki(nM) at A1 Before Cleavage): 49 nM

Compound: CCn1c(=O)c2[nH]c(-c3ccc(OCC(=O)N(C)CCN(C)C)cc3)nc2n(CC)c1=O [tri-methyl substition of 56b]
Ki ([1]; read-out: Ki (A1-potency)): 1.5 nM

More lines, main results first:

Ki [1, 15]: 57 nM
Kb [2, 16]: 48 nM
Compound: CCNC(=O)COc1ccc(-c2nc3c([nH]2)c(=O)n(CC)c(=O)n3CC)cc1 [Compound 55b]

Ki [1, 15]: 13 nM
Kb [2, 16]: 40 nM
octanol/water partition coefficient (log p) ([13]; pH 7.2): 0.63
Compound: Cn1c(=O)c2[nH]c(-c3ccc(OCC(=O)NCCN)cc3)nc2n(C)c1=O [Compound 56a]

receptor subtype selectivity ([1]; A1 vs A2): nonselective for receptor subtypes
Ki [1, 15]: 12 nM
potency of XAC and 56b compared (A2 receptors) [2]: nearly identical at A2 receptors
Kb [2, 16]: 21 nM
logD [13]: -0.06
solubility ([8]; pH 7.2, 0.01 M phosphate, read-out: maximum aqueous solubility): 500 µM (≈ 200 µg/mL)
Compound: CCn1c(=O)c2[nH]c(-c3ccc(OCC(=O)NCCN)cc3)nc2n(CC)c1=O [Compound 56b, 8-[4-[[[[(2-Aminoethyl)amino]carbonyl]methyl]oxy]phenyl]-1,3-diethylxanthine]
potency of XAC and 56b compared (A1-receptors) [1]: differed by an order of magnitude at A1-receptors

Ki [1, 15]: 27 nM
Compound: Cc1ccc(NC(=O)COc2ccc(-c3nc4c([nH]3)c(=O)n(C)c(=O)n4C)cc2)cc1 [Compound 57a]

Ki [1, 15]: 9.3 nM
Kb [2, 16]: 100 nM
Compound: CCn1c(=O)c2[nH]c(-c3ccc(OCC(=O)Nc4ccc(C)cc4)cc3)nc2n(CC)c1=O [Compound 57b]
A2 potency / affinity [2]: not as potent at A2 -receptors as expected

Ki [1, 15]: 58 nM
Kb [2, 16]: 210 nM
Compound: CCn1c(=O)c2[nH]c(-c3ccc(OCC(=O)Nc4ccc(CC(=O)OC)cc4)cc3)nc2n(CC)c1=O [Compound 58b, 8-[4-[[[[(4-Carboxymethyl)anilino]carbonyl]methyl]oxy]-phenyl]-1,3-diethylxanthine Methyl Ester]

Ki [1, 15]: 42 nM
Kb [2, 16]: 63 nM
logD [13]: -0.05
Compound: Cn1c(=O)c2[nH]c(-c3ccc(OCC(=O)Nc4ccc(CC(=O)NCCN)cc4)cc3)nc2n(C)c1=O [Compound 59a]

Ki [1, 15]: 25 nM
Kb [2, 16]: 28 nM
Compound: CCn1c(=O)c2[nH]c(-c3ccc(OCC(=O)Nc4ccc(CC(=O)NCCN)cc4)cc3)nc2n(CC)c1=O [Compound 59b]

Ki [1, 15]: 180 nM
Kb [2, 16]: 230 nM
Compound: CCn1c(=O)c2[nH]c(-c3ccc(OCC(=O)NCCNC(=O)[C@@H](CCCCNC(=O)OCc4ccccc4)NC(=O)OC(C)(C)C)cc3)nc2n(CC)c1=O [Compound 60b]

Kb [2, 16]: 23 nM
logD [13]: -1.2
Compound: CCn1c(=O)c2[nH]c(-c3ccc(OCC(=O)NCCNC(=O)[C@H](N)CCCCN)cc3)nc2n(CC)c1=O [Compound 61b, 8-[4-[(Carboxymethyl)oxy]phenyl]-1,3-diethylxanthine 2-(D-Lysylamino)ethylamide Dihydrochloride]
